Among the data in patent US20230295212A1 (ROME Therapeutics, Inc., priority 2022, published 2023) are IC50 values, retold here.

Molecules are shown by their SMILES.

For the first experiment, the target named is T1, LINE1 reverse transcriptase (Homo sapiens, UniProt O00370).
T1 construct: expressed in transfected cells; host or cells: HeLa Tet-On 3G (Takara, cat no 631183)
T1 sequence (O00370 whole entry, looked up): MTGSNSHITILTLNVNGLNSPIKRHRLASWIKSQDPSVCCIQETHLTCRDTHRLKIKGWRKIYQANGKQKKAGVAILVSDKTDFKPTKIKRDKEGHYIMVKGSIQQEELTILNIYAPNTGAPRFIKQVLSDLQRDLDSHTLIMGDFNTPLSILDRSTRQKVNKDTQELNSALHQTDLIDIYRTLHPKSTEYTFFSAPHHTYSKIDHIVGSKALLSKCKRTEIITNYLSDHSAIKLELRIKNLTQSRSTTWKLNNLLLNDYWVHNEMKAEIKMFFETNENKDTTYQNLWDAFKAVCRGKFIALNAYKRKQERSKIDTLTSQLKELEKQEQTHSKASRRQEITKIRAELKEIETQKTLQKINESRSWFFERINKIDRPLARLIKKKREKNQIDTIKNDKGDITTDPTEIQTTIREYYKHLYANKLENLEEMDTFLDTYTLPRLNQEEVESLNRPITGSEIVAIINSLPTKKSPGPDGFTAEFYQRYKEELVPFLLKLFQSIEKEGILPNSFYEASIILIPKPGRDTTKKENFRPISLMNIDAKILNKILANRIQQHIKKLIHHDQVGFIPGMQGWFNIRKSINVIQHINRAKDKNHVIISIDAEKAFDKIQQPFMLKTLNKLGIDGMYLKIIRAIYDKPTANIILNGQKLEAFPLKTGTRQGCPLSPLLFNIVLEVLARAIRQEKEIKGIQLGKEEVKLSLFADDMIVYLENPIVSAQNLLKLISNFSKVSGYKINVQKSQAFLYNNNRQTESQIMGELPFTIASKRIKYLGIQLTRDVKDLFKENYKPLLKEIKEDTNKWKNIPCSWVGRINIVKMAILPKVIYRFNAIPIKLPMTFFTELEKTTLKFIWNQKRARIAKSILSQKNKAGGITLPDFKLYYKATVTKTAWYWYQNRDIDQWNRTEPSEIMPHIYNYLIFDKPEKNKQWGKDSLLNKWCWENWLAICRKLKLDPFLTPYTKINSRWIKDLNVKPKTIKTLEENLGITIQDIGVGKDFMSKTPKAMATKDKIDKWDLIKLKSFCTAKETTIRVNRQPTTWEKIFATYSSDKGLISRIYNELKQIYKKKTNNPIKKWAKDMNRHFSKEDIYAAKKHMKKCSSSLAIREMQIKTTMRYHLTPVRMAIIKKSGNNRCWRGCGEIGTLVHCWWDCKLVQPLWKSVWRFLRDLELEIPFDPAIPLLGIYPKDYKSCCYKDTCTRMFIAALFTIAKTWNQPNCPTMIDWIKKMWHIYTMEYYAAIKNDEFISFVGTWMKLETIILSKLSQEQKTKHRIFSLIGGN
Nature of the experiment: Stable artificial-intron Cis LINE1 reporter assay (HeLa Tet-On 3G, Firefly luciferase). Format: cell-based. As to conditions: HeLa L1 artificial-intron reporter cells, doxycycline 500 ng/mL, 72 h, class symbols. In short, it runs like this:
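HeLa Tet-On 3G clone stably carrying a bi-directional doxycycline-inducible artificial-intron LINE1 reporter, plated at 8,000 cells/well onto serially diluted compound. Expression induced with 500 ng/mL doxycycline (final); Firefly luciferase luminescence (Dual-Glo) read 72 h after plating as LINE1 activity.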
Take `[2H]C([2H])(Cl)[C@]1(CO)O[C@@H](n2cc(F)c(N)nc2=O)[C@@H](F)[C@@H]1O` [Compound 175, 4-amino-1-((2R,3S,4R,5R)-5-(chloromethyl-d2)-3-fluoro-4-hydroxy-5-(hydroxymethyl)tetrahydrofuran-2-yl)-5-fluoropyrimidin-2(1H)-one]: the IC50 is at most 50 nM.
The same measure, in the same setting: as for `Nc1ccn([C@@H]2O[C@@](CO)(CF)[C@@H](O)[C@@H]2F)c(=O)n1` [Compound 113, 4-amino-1-((2R,3S,4R,5R)-3-fluoro-5-(fluoromethyl)-4-hydroxy-5-(hydroxymethyl)-tetrahydrofuran-2-yl)pyrimidin-2(1H)-one], the figure is 50 to 100 nM.
Same read-out and setting: as for `Cc1cn([C@H]2C[C@H](F)[C@](CO)(CCl)O2)c(=O)[nH]c1=O` [Compound 7, 1-((2R,4S,5R)-5-(chloromethyl)-4-fluoro-5-(hydroxymethyl)tetrahydrofuran-2-yl)-5-methylpyrimidine-2,4(1H,3H)-dione], the figure is over 1000 nM.
Same read-out and setting: as for `C#C[C@]1(CO)O[C@@H](n2ccc(=O)[nH]c2=O)[C@H](F)[C@@H]1O` [Compound 33, 1-((2R,3R,4R,5R)-5-ethynyl-3-fluoro-4-hydroxy-5-(hydroxymethyl)tetrahydrofuran-2-yl)pyrimidine-2,4(1H,3H)-dione], the figure is over 1000 nM; as for `C=C[C@]1(CO)O[C@@H](n2cnc3c(N)nc(F)nc32)C[C@@H]1O` [Compound 109, (2R,3S,5R)-5-(6-amino-2-fluoro-9H-purin-9-yl)-2-(hydroxymethyl)-2-vinyltetrahydrofuran-3-ol], at most 50 nM.
`C[C@]1(CO)O[C@@H](n2ccc(N)nc2=O)C[C@@H]1O` [Compound 106, 4-amino-1-((2R,4S,5R)-4-hydroxy-5-(hydroxymethyl)-5-methyltetrahydrofuran-2-yl)pyrimidin-2(1H)-one] displayed a half-inhibitory concentration (IC50) of at most 50 nM.
In turn, `Nc1nc2c(ncn2[C@@H]2O[C@@](CO)(CF)[C@@H](O)[C@@H]2F)c(=O)[nH]1` [Compound 83, 2-amino-9-((2R,3S,4R,5R)-3-fluoro-5-(fluoromethyl)-4-hydroxy-5-(hydroxymethyl)tetrahydrofuran-2-yl)-1,9-dihydro-6H-purin-6-one] displayed an IC50 of over 1000 nM.
Compound `Nc1ccn([C@@H]2O[C@@](CO)(CCl)[C@@H](O)C2(F)F)c(=O)n1` [Compound 119, 4-amino-1-((2R,4R,5R)-5-(chloromethyl)-3,3-difluoro-4-hydroxy-5-(hydroxymethyl)tetrahydrofuran-2-yl)pyrimidin-2(1H)-one] registered an IC50 of 50 to 100 nM.
The same measure, in the same setting: as for `C=C=C[C@]1(CO)O[C@@H](n2cnc3c(N)nc(F)nc32)C[C@@H]1O` [Compound 164, (2R,3S,5R)-5-(6-amino-2-fluoropurin-9-yl)-2-(hydroxymethyl)-2-(propa-1,2-dien-1-yl)oxolan-3-ol], the figure is 250 to 1000 nM; as for `C=C[C@]1(CO)O[C@@H](n2cnc3c(=O)[nH]c(N)nc32)[C@@H](F)[C@@H]1O` [Compound 63, 2-amino-9-[(2R,3S,4R,5R)-5-ethenyl-3-fluoro-4-hydroxy-5-(hydroxymethyl)oxolan-2-yl]-1H-purin-6-one], 250 to 1000 nM; as for `Cc1cn([C@@H]2O[C@@](CO)(CCl)[C@@H](O)[C@@H]2F)c(=O)[nH]c1=O` [Compound 176], over 1000 nM.
Compound `CCCC1(CO)O[C@@H](n2ccc(N)nc2=O)C[C@@H]1O` (stereo partly drawn) [Compound 57, 4-amino-1-((2R,4S,5R)-4-hydroxy-5-(hydroxymethyl)-5-propyltetrahydrofuran-2-yl)pyrimidin-2(1H)-one] yielded an IC50 of over 1000 nM.
In turn, `CC(C)[C@]1(CO)O[C@@H](n2ccc(N)nc2=O)C[C@@H]1O` [Compound 55, 4-amino-1-[(2R,4S,5R)-4-hydroxy-5-(hydroxymethyl)-5-isopropyloxolan-2-yl] pyrimidin-2-one] returned an IC50 of over 1000 nM.
The same measure, in the same setting: as for `C=C[C@]1(CO)O[C@@H](n2ccc(N)nc2=O)[C@@H](F)[C@@H]1O` [Compound 47, 4-amino-1-((2R,3S,4R,5R)-3-fluoro-4-hydroxy-5-(hydroxymethyl)-5-vinyltetrahydrofuran-2-yl)pyrimidin-2(1H)-one], the figure is at most 50 nM; as for `C=C[C@]1(CO)O[C@@H](n2cnc3c(O)nc(N)nc32)C[C@@H]1O` [Compound 69, 2-amino-9-((2R,4S,5R)-4-hydroxy-5-(hydroxymethyl)-5-vinyltetrahydrofuran-2-yl)-1,9-dihydro-6H-purin-6-one], at most 50 nM; as for `O=c1nc(NO)ccn1[C@H]1C[C@H](O)[C@](CO)(CCl)O1` [Compound 6, 1-((2R,4S,5R)-5-(chloromethyl)-4-hydroxy-5-(hydroxymethyl)tetrahydrofuran-2-yl)-4-(hydroxyamino)pyrimidin-2(1H)-one], 100 to 250 nM.
The same measure, in the same setting: as for `Nc1ccn([C@@H]2O[C@H](CO)[C@@H](O)C2(F)F)c(=O)n1` [Compound 111, 4-amino-1-((2R,4R,5R)-3,3-difluoro-4-hydroxy-5-(hydroxymethyl)tetrahydrofuran-2-yl)pyrimidin-2(1H)-one], the figure is at most 50 nM.
On the same count and under the same terms, as for `C#C[C@]1(CO)O[C@@H](n2cc(F)c(N)nc2=O)[C@@H](O)[C@@H]1O` [Compound 116, 4-amino-1-((2R,3S,4S,5R)-5-ethynyl-3,4-dihydroxy-5-(hydroxymethyl)tetrahydrofuran-2-yl)-5-fluoropyrimidin-2(1H)-one], the figure is 100 to 250 nM; as for `CC[C@]1(COC(=O)C(C)C)O[C@@H](n2ccc(N)nc2=O)C[C@@H]1OC(=O)C(C)C` [Compound 52, [(2R,3S,5R)-5-(4-amino-2-oxopyrimidin-1-yl)-2-ethyl-3-[(2-methylpropanoyl)oxy]oxolan-2-yl] methyl 2-methylpropanoate], 100 to 250 nM; as for `Nc1ccn([C@@H]2O[C@@](CO)(CBr)[C@@H](O)[C@@H]2F)c(=O)n1` [Compound 172], at most 50 nM.
In the case of `CC(C)C(=O)OC[C@@]1(CCl)O[C@@H](n2cc(F)c(N)nc2=O)[C@@H](F)[C@@H]1OC(=O)C(C)C` [Compound 173, (2R,3R,4S,5R)-5-(4-amino-5-fluoro-2-oxopyrimidin-1(2H)-yl)-2-(chloromethyl)-4-fluoro-2-((isobutyryloxy)methyl)tetrahydrofuran-3-yl isobutyrate], the IC50 is 250 to 1000 nM.
As to `CSC[C@]1(CO)O[C@@H](n2cc(F)c(N)nc2=O)[C@@H](F)[C@@H]1O` [Compound 135], the IC50 is over 1000 nM.
Still for that read-out and setting: as for `Nc1ncnc2c1ncn2[C@H]1C[C@H](O)[C@](CO)(CCl)O1` [Compound 15, (2R,3S,5R)-5-(6-amino-9H-purin-9-yl)-2-(chloromethyl)-2-(hydroxymethyl)tetrahydrofuran-3-ol], the figure is 250 to 1000 nM; as for `C=C[C@]1(CO)O[C@@H](n2cc(F)c(N)nc2=O)[C@@H](F)[C@@H]1O` [Compound 76, 4-amino-1-[(2R,3S,4R,5R)-5-ethenyl-3-fluoro-4-hydroxy-5-(hydroxymethyl)oxolan-2-yl]-5-fluoropyrimidin-2-one], at most 50 nM.

Staying with this experiment, now noted: HeLa L1 artificial-intron reporter cells, doxycycline 500 ng/mL, 72 h, numeric bounds.
Turning to `O=c1[nH]c(=O)n([C@@H]2O[C@@](CO)(CCl)[C@@H](O)[C@@H]2F)cc1F` [Compound 163, 1-[(2R,3S,4R,5R)-5-(chloromethyl)-3-fluoro-4-hydroxy-5-(hydroxymethyl)oxolan-2-yl]-5-fluoro-3H-pyrimidine-2,4-dione], the IC50 was over 30000 nM.

A word on the IC50: it is the point on the concentration scale where inhibition reaches its midpoint. A low value points to higher potency.
